Assay results reported in paper PMC4191963, “DNA Binding Properties of the Actin-Related Protein Arp8 and Its Role in DNA Repair” (PLoS ONE, 2014).

Legend:
[1] = target: T1, human Arp8 (Homo sapiens, UniProt Q9H981); experiment: agarose gel shift, loss of dsDNA binding; conditions: 1 mM MgCl2, pH 7.5, 37 °C, phiX174 dsDNA
T1 construct: gene ACTR8; full length, N-terminal His6 tag removed with PreScission protease, expressed in E. coli

[2] = target: T2, human Arp8 (Homo sapiens, UniProt Q9H981, E266A); experiment: agarose gel shift, loss of dsDNA binding; conditions: 1 mM ATP, 1 mM MgCl2, pH 7.5, 37 °C, phiX174 circular dsDNA; ATP-binding pocket
T2 construct: gene ACTR8; full length, N-terminal His6 tag removed with PreScission protease, expressed in E. coli
T2 sequence (Q9H981 whole entry E266A): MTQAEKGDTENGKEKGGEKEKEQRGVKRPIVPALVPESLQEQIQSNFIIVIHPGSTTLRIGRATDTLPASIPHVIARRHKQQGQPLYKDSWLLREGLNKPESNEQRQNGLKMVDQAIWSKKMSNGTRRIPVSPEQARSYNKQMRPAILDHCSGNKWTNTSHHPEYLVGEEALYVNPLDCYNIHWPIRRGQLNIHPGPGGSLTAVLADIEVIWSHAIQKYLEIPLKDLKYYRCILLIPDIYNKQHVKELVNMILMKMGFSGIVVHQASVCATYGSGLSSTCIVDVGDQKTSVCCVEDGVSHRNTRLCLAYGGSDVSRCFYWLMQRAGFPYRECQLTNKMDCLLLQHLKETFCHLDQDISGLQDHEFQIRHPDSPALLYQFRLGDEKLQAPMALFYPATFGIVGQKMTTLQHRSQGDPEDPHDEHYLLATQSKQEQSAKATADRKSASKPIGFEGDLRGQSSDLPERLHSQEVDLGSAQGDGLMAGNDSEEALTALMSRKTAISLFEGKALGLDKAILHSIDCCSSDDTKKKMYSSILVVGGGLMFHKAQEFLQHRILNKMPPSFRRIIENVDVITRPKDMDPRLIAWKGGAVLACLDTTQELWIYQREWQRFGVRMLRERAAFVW

[3] = target: Arp8 (Homo sapiens, UniProt Q9H981 1-624); experiment: competition EMSA (PAGE); 3 µM each of ssDNA, dsDNA, 3'-overhang; 250 mM NaCl; highest apparent affinity; 20 mM HEPES-NaOH pH 7.5, 160 mM NaCl (250 mM in oligonucleotide competition), 1 mM MgCl2, 1 mM DTT, 0.1 mg/ml BSA, 8% glycerol (not listed for competition), +/- 1 mM ATP or ADP, 37 C 15 min; conditions: protein: recombinant; tags: His6 (N-terminal) removed by PreScission; single-stranded
Sequence of Arp8 (Q9H981 whole entry): as the sequence (Q9H981 whole entry E266A) above, with A266E counted along it

T1 sequence (Q9H981 whole entry): as the sequence (Q9H981 whole entry E266A) above, with A266E counted along it

Molecule: Nc1ncnc2c1ncn2[C@@H]1O[C@H](COP(=O)(O)OP(=O)(O)OP(=O)(O)O)[C@@H](O)[C@H]1O [ATP]
- agarose gel shift, loss of dsDNA binding ([1]; 1 mM ATP, ATP-binding pocket): Addition of ATP to the binding assay mixture significantly decreased the binding of Arp8
- agarose gel shift, loss of dsDNA binding [2]: ATP only partially inhibited the DNA binding activity of the Arp8 E266A mutant

Molecule: Nc1ncnc2c1ncn2[C@@H]1O[C@H](COP(=O)(O)OP(=O)(O)O)[C@@H](O)[C@H]1O [ADP]
- agarose gel shift, loss of dsDNA binding ([1]; 1 mM ADP): addition of ADP only slightly decreased the binding of Arp8 to dsDNAs

Molecule: CCTCGATCCTACCAACCAGATGACGCGCTGCTACGTGCTACCGGAAGTCG (ssDNA) [a3 ssDNA]
- binding result [3]: binds
